Test results from PMC7587356, “High-Throughput Screening for Inhibitors of the SARS-CoV-2 Protease Using a FRET-Biosensor” (Molecules, 2020).
Structures can show the parent of a compound that is named as a salt. Where two headings read alike, the source gives them in different places.

Biological target: SARS-CoV-2 3CLpro (Severe acute respiratory syndrome coronavirus 2, UniProt P0DTD1)
Assay: biochemical
Type: biochemical
Design: Replicate_1 / Replicate_2 / mean / mean (LOPAC_screen_w_protease): unit not given here
Settings: for inhibition at 5 µM: 4 h
[1] = LOPAC1280 primary screen with protease, 5 µM compound, replicate 1, read-out: Replicate_1 (LOPAC_screen_w_protease)
[2] = LOPAC1280 primary screen with protease, 5 µM compound, replicate 2, read-out: Replicate_2 (LOPAC_screen_w_protease)
[3] = LOPAC1280 primary screen with protease, 5 µM compound, mean of two replicates
[4] = sheet LOPAC_screen_w_protease, primary screen with protease, mean of two replicates
[5] = sheet LOPAC_screen_w_protease, primary screen with protease, replicate 1
[6] = sheet LOPAC_screen_w_protease, primary screen with protease, replicate 2
[7] = LOPAC1280 primary screen with protease, 5 µM compound, mean of the two replicates
[8] = sheet LOPAC_screen_w_protease, LOPAC1280 primary screen with protease, 5 µM compound, mean of the two replicates, read-out: mean
[9] = sheet LOPAC_screen_w_protease, LOPAC1280 primary screen with protease, 5 µM compound, replicate 1, read-out: Replicate_1
[10] = sheet LOPAC_screen_w_protease, LOPAC1280 primary screen with protease, 5 µM compound, replicate 2, read-out: Replicate_2
[11] = sheet LOPAC_screen_w_protease, primary screen of LOPAC1280 at 5 µM with protease, mean of the two replicates
[12] = sheet LOPAC_screen_w_protease, primary screen of LOPAC1280 at 5 µM with protease, replicate 1
[13] = sheet LOPAC_screen_w_protease, primary screen of LOPAC1280 at 5 µM with protease, replicate 2
[14] = sheet LOPAC_screen_w_protease, primary screen with protease, compound at 5 µM, mean of two replicates
[15] = sheet LOPAC_screen_w_protease, primary screen with protease, compound at 5 µM, replicate 1
[16] = sheet LOPAC_screen_w_protease, primary screen with protease, compound at 5 µM, replicate 2
[17] = sheet LOPAC_screen_w_protease, primary screen with protease, compound at 5 µM, mean of two replicates, read-out: mean
[18] = sheet LOPAC_screen_w_protease, primary screen with protease, compound at 5 µM, replicate 1, read-out: Replicate_1
[19] = sheet LOPAC_screen_w_protease, primary screen with protease, compound at 5 µM, replicate 2, read-out: Replicate_2
[20] = sheet LOPAC_screen_w_protease, primary screen of LOPAC1280 at 5 µM with protease, mean of the two replicates, read-out: mean
[21] = sheet LOPAC_screen_w_protease, primary screen of LOPAC1280 at 5 µM with protease, replicate 1, read-out: Replicate_1
[22] = sheet LOPAC_screen_w_protease, primary screen of LOPAC1280 at 5 µM with protease, replicate 2, read-out: Replicate_2
[23] = LOPAC1280 primary screen with protease, 5 µM compound, replicate 1
[24] = LOPAC1280 primary screen with protease, 5 µM compound, replicate 2
[25] = sheet LOPAC_screen_w_protease, primary screen with protease, 5 µM, mean of two replicates, read-out: mean
[26] = sheet LOPAC_screen_w_protease, primary screen with protease, 5 µM, replicate 1, read-out: Replicate_1
[27] = sheet LOPAC_screen_w_protease, primary screen with protease, 5 µM, replicate 2, read-out: Replicate_2

CO[C@@]1(NC(=O)CSCC#N)C(=O)N2C(C(=O)O)=C(CSc3nnnn3C)CS[C@@H]21 [Cefmetazole sodium]
inhibition at 5 µM [1]: 1.13%
inhibition at 5 µM [2]: 2.27%
mean (LOPAC_screen_w_protease) [3]: 1.702

CSc1nc(N)c2ncn([C@@H]3O[C@H](COP(=O)([O-])OP(=O)([O-])OP(=O)([O-])[O-])[C@@H](O)[C@H]3O)c2n1.[Na+].[Na+].[Na+].[Na+]
mean [4]: 2.299
Replicate_1 [5]: 2.88
Replicate_2 [6]: 1.718

Br.CCCN(CCC)[C@@H]1CCc2cccc(O)c2C1 [R-(+)-8-Hydroxy-DPAT hydrobromide]
mean (sheet LOPAC_screen_w_protease, primary screen with protease, 5 µM, mean of two replicates): -0.6201
Replicate_1 (sheet LOPAC_screen_w_protease, primary screen with protease, 5 µM, replicate 1): 2.2019
Replicate_2 (sheet LOPAC_screen_w_protease, primary screen with protease, 5 µM, replicate 2): -3.442

Oc1ccc(Cn2cc[nH]c2=S)cc1 [1-(4-Hydroxybenzyl)imidazole-2-thiol]
inhibition at 5 µM (sheet LOPAC_screen_w_protease, primary screen at 5 µM, mean of two replicates, read-out: mean (LOPAC screen with protease)): 35.7%
inhibition at 5 µM (sheet LOPAC_screen_w_protease, primary screen at 5 µM, replicate 1, read-out: Replicate_1 (LOPAC screen with protease)): 39.5%
inhibition at 5 µM (sheet LOPAC_screen_w_protease, primary screen at 5 µM, replicate 2, read-out: Replicate_2 (LOPAC screen with protease)): 31.9%

C[N+]1(C)[C@@H]2CC[C@H]1C[C@@H](OC(=O)C(CO)c1ccccc1)C2 (stereo partly drawn) [Atropine methyl bromide]
inhibition at 5 µM [1]: 2.3%
inhibition at 5 µM [2]: 1.25%
mean (LOPAC_screen_w_protease) [7]: 1.779

CNC1(C)C2CCC(C2)C1(C)C (stereo not drawn) [Mecamylamine hydrochloride]
inhibition at 5 µM [8]: 4.7%
inhibition at 5 µM [9]: 5.3%
inhibition at 5 µM [10]: 4.09%

NC(Cc1ccc(Cl)cc1)C(=O)O (racemic) [(±)-p-Chlorophenylalanine]
mean [11]: 3.154
Replicate_1 [12]: 1.596
Replicate_2 [13]: 4.711

C1COC(NC(C2CC2)C2CC2)=N1 [Rilmenidine hemifumarate]
inhibition at 5 µM [1]: 4.65%
inhibition at 5 µM [2]: -0.41%
mean (LOPAC_screen_w_protease) [7]: 2.121

COc1ccc2cc([C@H](C)C(=O)[O-])ccc2c1.[Na+] [(-)-Naproxen sodium]
Replicate_2: -1.573
mean: 0.4756

COC(=O)C(C)(N)Cc1ccc(O)cc1.Cl (racemic)
mean [14]: 2.971
Replicate_1 [15]: 4.293
Replicate_2 [16]: 1.648

CNCCC(Oc1ccccc1OC)c1ccccc1 (stereo not drawn) [Nisoxetine hydrochloride]
inhibition at 5 µM [8]: 4.4%
inhibition at 5 µM [9]: 3.53%
inhibition at 5 µM [10]: 5.27%

CCCCCCCCCC(=O)NC(CN1CCOCC1)[C@H](O)c1ccccc1.Cl (mixture of isomers)
mean (sheet LOPAC_screen_w_protease, LOPAC1280 primary screen at 5 µM, with protease, mean of the two replicates): 0.5952
Replicate_1 (sheet LOPAC_screen_w_protease, LOPAC1280 primary screen at 5 µM, with protease, replicate 1): 1.232
Replicate_2 (sheet LOPAC_screen_w_protease, LOPAC1280 primary screen at 5 µM, with protease, replicate 2): -0.042

CCOC(=O)[N-]c1cn(N2CCOCC2)n[o+]1 [Molsidomine]
inhibition at 5 µM [17]: 2.83%
inhibition at 5 µM [18]: 1.44%
inhibition at 5 µM [19]: 4.23%

NC(=O)CN1CCCC1=O [Piracetam]
inhibition at 5 µM [20]: 3.49%
inhibition at 5 µM [21]: 5.61%
inhibition at 5 µM [22]: 1.37%

O=C(O)CCC/C=C\C[C@@H]1[C@@H](/C=C/[C@H](O)C2Cc3ccccc3C2)[C@@H](F)C[C@@H]1O [AL-8810]
Replicate_1: 0.247
Replicate_2: 1.148
mean: 0.6974

NC(CP(=O)(O)O)C(=O)O (racemic) [(±)-2-Amino-3-phosphonopropionic acid]
mean [14]: 3.099
Replicate_1 [15]: 4.251
Replicate_2 [16]: 1.946

NCC(=O)NCCC(c1ccccc1)c1ccccc1 [N-(3,3-Diphenylpropyl)glycinamide]
mean (LOPAC_screen_w_protease) [3]: 1.396
Replicate_1 (LOPAC_screen_w_protease) [23]: 1.194
Replicate_2 (LOPAC_screen_w_protease) [24]: 1.598

CC1=C[C@@H]2c3cccc4[nH]cc(c34)C[C@H]2N(C)C1 [Agroclavine]
inhibition at 5 µM [20]: 3.47%
inhibition at 5 µM [21]: 3.6%
inhibition at 5 µM [22]: 3.34%

c1ccc2c(c1)OCC(C1=NCCN1)O2 (stereo not drawn) [Idazoxan hydrochloride]
inhibition at 5 µM (read-out: Replicate_1 (LOPAC_screen_w_protease)): 1.08%
inhibition at 5 µM (read-out: Replicate_2 (LOPAC_screen_w_protease)): 2.66%

Br.Br.N=C(N)SCCc1cccc(CCSC(=N)N)c1 [1,3-PBIT dihydrobromide]
mean (LOPAC_screen_w_protease) [3]: 1.415
Replicate_1 (LOPAC_screen_w_protease) [23]: 1.3545
Replicate_2 (LOPAC_screen_w_protease) [24]: 1.476

Cl.O=C(O)C1=CCCN(CCON=C(c2ccccc2)c2ccccc2)C1 [NO-711 hydrochloride]
Replicate_1: 1.057
Replicate_2: -0.5134
mean: 0.272

CSc1ccc2c(c1)N(CCC1CCCCN1C)c1ccccc1S2 (stereo not drawn) [Thioridazine hydrochloride]
inhibition at 5 µM (read-out: Replicate_1): 0.0861%
inhibition at 5 µM (read-out: Replicate_2): 0.816%
inhibition at 5 µM (read-out: mean): 0.451%

CCCC(CCC)C(=O)O [Valproic acid sodium]
inhibition at 5 µM [20]: 3.18%
inhibition at 5 µM [21]: 2.68%
inhibition at 5 µM [22]: 3.67%

COc1cc(CNC(=O)CCCCCCC(C)C)ccc1O [Dihydrocapsaicin]
inhibition at 5 µM [17]: 3.14%
inhibition at 5 µM [18]: 4.91%
inhibition at 5 µM [19]: 1.38%

CN(C)CCCN1c2ccccc2Sc2ccccc21 [Promazine hydrochloride]
inhibition at 5 µM [25]: -0.303%
inhibition at 5 µM [26]: -0.0432%
inhibition at 5 µM [27]: -0.563%

Cc1nc(N=Nc2cc(S(=O)(=O)[O-])c3cc([N+](=O)[O-])cc(S(=O)(=O)[O-])c3c2)c(COP(=O)([O-])[O-])c(C=O)c1O.[Na+].[Na+].[Na+].[Na+] [PPNDS tetrasodium]
mean (sheet LOPAC_screen_w_protease, LOPAC1280 primary screen with protease, 5 µM compound, mean of the two replicates): 5.708
Replicate_1 (sheet LOPAC_screen_w_protease, LOPAC1280 primary screen with protease, 5 µM compound, replicate 1): 4.956
Replicate_2 (sheet LOPAC_screen_w_protease, LOPAC1280 primary screen with protease, 5 µM compound, replicate 2): 6.46

17alpha-hydroxyprogesterone
mean [4]: 2.147
Replicate_1 [5]: 1.557

CC(=O)O[C@]1(C(C)=O)CC[C@H]2[C@@H]3C=C(Cl)C4=CC(=O)[C@@H]5C[C@@H]5[C@]4(C)[C@H]3CC[C@@]21C [Cyproterone acetate]
inhibition at 5 µM [25]: -0.427%
inhibition at 5 µM [26]: 1.58%
inhibition at 5 µM [27]: -2.43%

CCN1CCC[C@H]1CNC(=O)c1c(OC)ccc(I)c1O [S(-)-IBZM]
mean [4]: 2.422
Replicate_1 [5]: 3.86
Replicate_2 [6]: 0.9843

C[C@]12CC[C@@H](O)C[C@@H]1CC[C@@H]1[C@@H]2CC[C@]2(C)C(=O)CC[C@@H]12 [Androsterone]
inhibition at 5 µM (read-out: Replicate_1): 1.73%
inhibition at 5 µM (read-out: Replicate_2): 3.02%
inhibition at 5 µM (read-out: mean): 2.38%

C[C@@H]1O[C@@H](O[C@H]2C[C@@H](O)[C@]3(CO)[C@H]4[C@H](O)C[C@]5(C)[C@@H]([C@@H]6COC(=O)C6)CC[C@]5(O)[C@@H]4CC[C@]3(O)C2)[C@H](O)[C@H](O)[C@H]1O [Dihydroouabain]
mean [11]: 3.947
Replicate_1 [12]: 5.984
Replicate_2 [13]: 1.91

COc1ccc(CC(C)NCC(O)c2ccc(O)c(NC=O)c2)cc1 (stereo not drawn) [Formoterol]
inhibition at 5 µM [1]: 1.5%
inhibition at 5 µM [2]: 1.19%
mean (LOPAC_screen_w_protease) [3]: 1.3452

C[C@]12CCC(=O)C=C1CC[C@@H]1[C@@H]2CC[C@@]2(C)[C@H]1CC[C@]2(O)C(=O)CO [Cortexolone]
inhibition at 5 µM (sheet LOPAC_screen_w_protease, LOPAC1280 at 5 µM, mean of two replicates, read-out: mean): 1.01%
inhibition at 5 µM (sheet LOPAC_screen_w_protease, LOPAC1280 at 5 µM, replicate 1, read-out: Replicate_1): 2.17%
inhibition at 5 µM (sheet LOPAC_screen_w_protease, LOPAC1280 at 5 µM, replicate 2, read-out: Replicate_2): -0.141%

Oc1ccc(O)cc1 [Hydroquinone]
inhibition at 5 µM (read-out: Replicate_1): 3.41%
inhibition at 5 µM (read-out: Replicate_2): -0.951%
inhibition at 5 µM (read-out: mean): 1.23%

CN(C)CCCN1c2ccccc2Sc2ccc(Cl)cc21 [Chlorpromazine hydrochloride]
inhibition at 5 µM (read-out: Replicate_1): 0.794%
inhibition at 5 µM (read-out: Replicate_2): 0.374%
inhibition at 5 µM (read-out: mean): 0.584%

S=C=Nc1ccc2oc(C3=NCCN3)cc2c1 [BU99006]
Replicate_1: 4.032
Replicate_2: 1.831
mean: 2.931
